The target in this assay is TGR25-GFP fusion protein (UniProt P42212+Q86Y34, F64L/I167T/S65C). Put plainly: Internalization of the TGR25-GFP fusion protein expressed on CHO cells (confocal microscope). Type of assay: cell-based, human. As to conditions: 100 μM AM251, 45 minutes, 37° C.

With `Cc1c(C(=O)NN2CCCCC2)nn(-c2ccc(Cl)cc2Cl)c1-c1ccc(I)cc1` [AM251, 1-(2,4-dichlorophenyl)-5-(4-iodophenyl)-4-methyl-N-piperidin-1-yl-1H-pyrazole-3-carboxamide], the “localization of the TGR25-GFP fusion protein (internalization)” value is “moved in part to the cytoplasm”.
